Test results taken from the pKa sets of Baltruschat and Czodrowski (2020).

settings: acidic group

Row | SMILES | pKa
1 | Cc1cccc2c1C(=O)NC2=O | 10.5
2 | Oc1ccc2cc3ccccc3cc2c1 | 9.92
3 | O=[Se](O)c1ccc(-c2ccccc2)cc1 | 4.53
4 | C=CCC1(C2C=CCCC2)C(=O)[N-]C(=S)NC1=O (stereo unspecified) | 12.2
5 | Cc1c(I)cccc1C(=O)O | 3.26
6 | CC(C)=NNS(C)(=O)=O | 8.5
7 | CC[Si](C)(C)CCCC(=O)O | 5.02
8 | CC1(C)CCC(=O)N1O | 8.7
9 | CC1=CC(C)=Nc2ccc(C)cc2N1 | 5.8
10 | CC1(C)OC(=O)C[C@H]2[C@@H](C(=O)O)[NH2+]C[C@H]21 | 2.27
11 | Cc1cc(O)ccc1Cl | 9.4
12 | CC(C)CCC1=C(O)C(=O)c2ccccc2C1=O | 5.13
13 | C/C=C/CC(=O)O | 4.28
14 | O/C(=C/c1cc[nH+]cc1)c1ccccc1 | 4.19
15 | CC(=O)[C@H]1C[C@@H](CC(=O)O)C1(C)C | 4.82
16 | CCO[C@H]1C[C@H]1C(=O)O | 4.83
17 | Nc1ccc(S(=O)(=O)Nc2cccnc2)cc1 | 7.89
18 | O=C(O)CCC(=O)NOCc1ccccc1 | 4.6
19 | CC(=O)NS(=O)(=O)c1ccccc1C(=O)O | 3.1
20 | O=C(O)CP | 4.07
21 | Oc1ccc2cn[nH]c2c1 | 9.35
22 | O=C(O)c1cc(=O)cco1 | 1.5
23 | CCOc1ccccc1/C=C/C(=O)O | 4.68
24 | Sc1cc[nH+]cc1 | 1.43

Row | SMILES | pKa
25 | COc1ccc(NC(C)=S)cc1 | 12
26 | C[NH+]1C[C@@H](C(=O)O)C=C2c3cccc4[nH]cc(c34)C[C@@H]21 | 3.28
27 | C[n+]1c2ccccc2cc2cc(N)ccc21 | 9.8
28 | C[n+]1cccc2cc(S)ccc21 | 4.12
29 | O=C([O-])c1ccc(O)c2ncccc12 | 9.32
30 | COC(=O)CCS | 9.33
31 | CC(C)Oc1ccccc1C(=O)O | 4.24
32 | CC(C)C1C(=O)c2ccccc2C1=O | 7.4
33 | CC(=O)Nc1cccc(O)c1 | 9.38
34 | CC(=O)c1ccc(O)c(O)c1 | 7.8
35 | O=Nc1ccc(O)cc1 | 6.2
36 | C[Si](C)(C)O[Si](C)(C)CCCC(=O)O | 5.03
37 | O=C(O)c1cccc(F)c1 | 3.9
38 | CCCCCCCCCCCCCCCCCC(=O)O | 5.01
39 | CCC([NH3+])C(=O)O (stereo unspecified) | 2.29
40 | CC1(C(=O)O)CCCCC1 | 5.13
41 | Nc1ccc(S(=O)(=O)Nc2ccc(N)cn2)cc1 | 8.47
42 | COc1cccnc1C(O)O | 12.9
43 | CC(O)C(C(=O)O)c1ccc(C2CCCCC2)cc1 (stereo unspecified) | 4.21
44 | C[n+]1ccc(C(=O)O)cc1 | 1.72
45 | CCCCOC(=O)c1ccc(O)cc1 | 8.34
46 | C[C@H]1CCCC[C@@H]1C(=O)O | 4.74
47 | COc1ccc(NC(=S)c2ccc(Cl)cc2)cc1 | 11.3
48 | CCN(CC)C(=S)NC(=O)c1ccccc1 | 8.45

Row | SMILES | pKa
49 | CC1CC(C)C(=O)CC1=O (stereo unspecified) | 5.62
50 | Oc1cccc(-c2ccccc2)c1 | 9.59
51 | OB(O)Cc1ccccc1 | 9.12
52 | N#Cc1c(-c2nc3ccccc3o2)c(=O)oc2cc(O)ccc12 | 6.07
53 | CC(=O)/C(CN1CCOCC1)=N\O | 9.15
54 | O=C(NBr)c1ccccc1 | 7.3
55 | O=C(O)C12CCC(C1)C2 | 3.96
56 | [NH3+]CC(=O)N1CCC[C@H]1C(=O)O | 2.95
57 | N#Cc1c(-c2nc3ccccc3s2)c(=O)oc2cc(O)ccc12 | 6.38
58 | CC(C)=C(C(N)=O)C(=O)O | 3.95
59 | [NH3+]CCCCCCCC(=O)O | 4.5
60 | Oc1onc(-c2ccccc2)c1Br | 2.3
61 | Nc1ccc(S(=O)(=O)Nc2ccc(O)cn2)cc1 | 7.5
62 | O=C(O)c1cc2ccccc2cc1O | 2.71
63 | O=S(=O)(Nc1ccccn1)c1ccccc1 | 8.2
64 | Cc1cc([O-])ccc1O | 11.8
65 | O=Cc1ccc(O)c(O)c1 | 7.45
66 | Cc1ccccc1[N+](C)(C)O | 4.78
67 | Nc1c2c(ncn2Cc2ccccc2)nc[n+]1[O-] | 11
68 | CC1CCCC(C(=O)O)c2nnnn21 (stereo unspecified) | 3.3
69 | O=C1CNC(=O)[C@H](Cc2ccc(O)cc2)N1 | 9.47
70 | C[n+]1ccc(O)nc1 | 1.91
71 | C[N+](C)(C)c1ccc(O)c([N+](=O)[O-])c1 | 5.03

same assay, conditions: basic group

Row | SMILES | pKa
72 | CC(C=C(c1cccs1)c1cccs1)N(C)C (stereo unspecified) | 8.95
73 | Nc1cccc([N+](=O)[O-])c1 | 2.6
74 | CN(C)c1ccc(/C=C/c2ccncc2)cc1 | 6.25
75 | c1ccc2c(c1)C1CCN2c2ccccc21 | 4.54
76 | C[C@@H]1CCC[C@H](C)N1C | 10.2
77 | NC1=N[C@@H](CC(=O)[O-])C(=O)N1CCCC(N)C(=O)[O-] (stereo partly specified) | 9.55
78 | C[C@@H]1CCN2CC=C[C@H]12 | 10.6
79 | CC(=O)CCCCN(C)C | 9.66
80 | COC(=O)C([NH3+])Cc1c[nH]cn1 (stereo unspecified) | 5.41
81 | CN(C)c1ccc2nc3ccc(N)cc3nc2c1 | 6.6
82 | C[C@@H]1CN[C@@H](C)CN1 | 9.76
83 | CN(CCC[NH3+])CCC[NH3+] | 6.45
84 | CC1=CC(C)=Nc2ccc(C)cc2N1 | 3.5
85 | C[n+]1c([S-])ccnc1[S-] | 6.96
86 | Cc1ccccc1NC1CCCCC1 | 5.34
